Measured values taken from patent US20220151230A1, “SPECIFICALLY SUBSTITUTED 3-(2-HALOGEN-6-ALKYL-4-PROPINYLPHENYL)-3-PYRROLIN-2-ONES AND TO THE USE THEREOF AS HERBICIDES” (Bayer Aktiengesellschaft, priority 2019, published 2022).

Columns and labels:
ALOMY [1] = experiment: Pre-emergence herbicidal effect against ALOMY; format: in vivo, Alopecurus myosuroides; details: 320 g/ha, scored visually after 3 weeks vs untreated controls, 100% = plants have died
Excerpt: (§1) Seeds of monocotyledonous and dicotyledonous weed plants and crop plants are laid out in sandy loam soil in wood-fiber pots and covered with soil. The compounds of the invention, formulated in the form of wettable powders (WP) or as emulsion concentrates (EC), are then applied to the surface of the covering soil as aqueous suspension or emulsion at a water application rate equating to 600 to 800 L/ha with addition of 0.2% wetting agent.
(§2) After the treatment, the pots are placed in a greenhouse and kept under good growth conditions for the trial plants. The damage to the test plants is scored visually after a test period of 3 weeks by comparison with untreated controls (herbicidal activity in percent (%): 100% activity=the plants have died, 0% activity=like control plants).

AVEFA [2] = experiment: Pre-emergence herbicidal effect against AVEFA; format: in vivo, Avena fatua; details: 320 g/ha, scored visually after 3 weeks vs untreated controls, 100% = plants have died
Excerpt: as §1, §2

DIGSA [3] = experiment: Pre-emergence herbicidal effect against DIGSA; format: in vivo, Digitaria sanguinalis; details: 320 g/ha, scored visually after 3 weeks vs untreated controls, 100% = plants have died
Excerpt: as §1, §2

LOLRI [4] = experiment: Pre-emergence herbicidal effect against LOLRI; format: in vivo, Lolium rigidum; details: 320 g/ha, scored visually after 3 weeks vs untreated controls, 100% = plants have died
Excerpt: as §1, §2

SETVI [5] = experiment: Pre-emergence herbicidal effect against SETVI; format: in vivo, Setaria viridis; details: 320 g/ha, scored visually after 3 weeks vs untreated controls, 100% = plants have died
Excerpt: as §1, §2

VIOTR = experiment: Pre-emergence herbicidal effect against VIOTR; format: in vivo, Viola tricolor; details: 320 g/ha, scored visually after 3 weeks vs untreated controls, 100% = plants have died
Excerpt: as §1, §2

ECHCG [6] = experiment: Pre-emergence herbicidal effect against ECHCG; format: in vivo, Echinochloa crus-galli; details: 320 g/ha, scored visually after 3 weeks vs untreated controls, 100% = plants have died
Excerpt: as §1, §2

ALOMY [7] = experiment: Post-emergence herbicidal effect against ALOMY; format: in vivo, Alopecurus myosuroides; details: one-leaf stage, 80 g/ha, assessed visually after about 3 weeks vs untreated controls, 100% = plants have died
Procedure: (§3) Seeds of monocotyledonous and dicotyledonous weed and crop plants are laid out in sandy loam soil in wood-fiber pots, covered with soil and cultivated in a greenhouse under good growth conditions. 2 to 3 weeks after sowing, the test plants are treated at the one-leaf stage. The compounds of the invention, formulated in the form of wettable powders (WP) or as emulsion concentrates (EC), are then sprayed onto the green parts of the plants as aqueous suspension or emulsion at a water application rate equating to 600 to 800 l/ha with addition of 0.2% wetting agent. After the test plants have been left to stand in the greenhouse under optimal growth conditions for about 3 weeks, the action of the preparations is assessed visually in comparison to untreated controls (herbicidal action in percent (%): 100% activity=the plants have died, 0% activity=like control plants).

AVEFA [8] = experiment: Post-emergence herbicidal effect against AVEFA; format: in vivo, Avena fatua; details: one-leaf stage, 80 g/ha, assessed visually after about 3 weeks vs untreated controls, 100% = plants have died
Procedure: as §3

DIGSA [9] = experiment: Post-emergence herbicidal effect against DIGSA; format: in vivo, Digitaria sanguinalis; details: one-leaf stage, 80 g/ha, assessed visually after about 3 weeks vs untreated controls, 100% = plants have died
Procedure: as §3

ECHCG [10] = experiment: Post-emergence herbicidal effect against ECHCG; format: in vivo, Echinochloa crus-galli; details: one-leaf stage, 80 g/ha, assessed visually after about 3 weeks vs untreated controls, 100% = plants have died
Procedure: as §3

LOLRI [11] = experiment: Post-emergence herbicidal effect against LOLRI; format: in vivo, Lolium rigidum; details: one-leaf stage, 80 g/ha, assessed visually after about 3 weeks vs untreated controls, 100% = plants have died
Procedure: as §3

SETVI [12] = experiment: Post-emergence herbicidal effect against SETVI; format: in vivo, Setaria viridis; details: one-leaf stage, 80 g/ha, assessed visually after about 3 weeks vs untreated controls, 100% = plants have died
Procedure: as §3

Row | Structure (SMILES) | Pre-emergence action [%] against ALOMY (ALOMY [1]) [%] | Pre-emergence action [%] against AVEFA (AVEFA [2]) [%] | Pre-emergence action [%] against DIGSA (DIGSA [3]) [%] | Pre-emergence action [%] against LOLRI (LOLRI [4]) [%] | Pre-emergence action [%] against SETVI (SETVI [5]) [%] | Pre-emergence action [%] against VIOTR (VIOTR) [%] | Pre-emergence action [%] against ECHCG (ECHCG [6]) [%] | Post-emergence action [%] against ALOMY (ALOMY [7]) [%] | Post-emergence action [%] against AVEFA (AVEFA [8]) [%] | Post-emergence action [%] against DIGSA (DIGSA [9]) [%] | Post-emergence action [%] against ECHCG (ECHCG [10]) [%] | Post-emergence action [%] against LOLRI (LOLRI [11]) [%] | Post-emergence action [%] against SETVI (SETVI [12]) [%]
1 | CC#Cc1cc(C)c(C2=C(OC(=O)OCC)C3(CCC(OC)CC3)NC2=O)c(Br)c1 (stereo not shown) [Example P13] | 100 | 100 | 100 | 100 | 100 | 100 | 100 | 100 | 100 | 100 | 100 | 100 | 100
2 | CC#Cc1cc(Cl)c(C2=C(O)C3(CCC(OC)CC3)NC2=O)c(C2CC2)c1 (stereo not shown) [Example E24] | 100 | 100 | 100 | 100 | 100 | 100 | 100 | 100 | 100 | – | 100 | 100 | 100
3 | CC#Cc1cc(Cl)c(C2=C(O)C3(CCC(OCC)CC3)NC2=O)c(CC)c1 (stereo not shown) [Example E12] | 90 | 90 | 100 | 100 | 100 | 100 | 100 | – | – | – | 100 | – | 100
4 | CC#Cc1cc(C)c(C2=C(O)C3(CCC(OCCOC)CC3)NC2=O)c(Cl)c1 (stereo not shown) [Example E16] | 100 | 100 | 100 | 100 | 100 | 100 | 100 | 100 | 100 | 100 | 100 | 100 | 100
5 | CC#Cc1cc(Cl)c(C2=C(OC(=O)OCC)C3(CCC(OC)CC3)NC2=O)c(CC)c1 (stereo not shown) [Example P21] | 100 | 100 | 100 | 100 | 100 | 90 | 100 | 90 | 80 | 100 | 100 | 80 | 100
6 | CC#Cc1cc(C)c(C2=C(O)C3(CCCC(OCCC)C3)NC2=O)c(Br)c1 (stereo not shown) [Example D5] | 100 | 100 | 100 | 100 | 100 | 100 | 100 | 100 | 100 | 100 | 100 | 100 | 100
7 | CC#Cc1cc(Cl)c(C2=C(OC(=O)OCC)C3(CCC(OC)CC3)NC2=O)c(C2CC2)c1 (stereo not shown) [Example P33] | 100 | 100 | 100 | 100 | 100 | – | 100 | 100 | 100 | – | 100 | 100 | 100
8 | CC#Cc1cc(Cl)c(C2=C(O)C3(CCC(OC)CC3)NC2=O)c(CC)c1 (stereo not shown) [Example E20] | 100 | 100 | 100 | 90 | 100 | 100 | 100 | – | 90 | 100 | 100 | 80 | 100
9 | CC#Cc1cc(C)c(C2=C(OC(=O)OCC)C3(CCCC(OCCOC)C3)NC2=O)c(Br)c1 (stereo not shown) [Example Q4] | 100 | 100 | 100 | 100 | 100 | – | 100 | 100 | 90 | – | 100 | 100 | 100
10 | CC#Cc1cc(Br)c(C2=C(O)C3(CCC(OC)CC3)NC2=O)c(C2CC2)c1 (stereo not shown) [Example E26] | 100 | 90 | 100 | 100 | 100 | 90 | 100 | 100 | – | 100 | 100 | 100 | 100
11 | CC#Cc1cc(Br)c(C2=C(O)C3(CCC(OC)CC3)NC2=O)c(CC)c1 (stereo not shown) [Example E25] | – | – | – | – | – | 80 | – | 90 | – | – | – | – | 90
12 | CC#Cc1cc(Br)c(C2=C(O)C3(CCCC(OCCOC)C3)NC2=O)c(C2CC2)c1 (stereo not shown) [Example D11] | 100 | 100 | 100 | 100 | 100 | 100 | 100 | 100 | – | 100 | 100 | 100 | 100
13 | CC#Cc1cc(Cl)c(C2=C(OC(=O)OC)C3(CCC(OC)CC3)NC2=O)c(CC)c1 (stereo not shown) [Example P24] | 100 | 100 | 100 | 100 | 100 | – | 90 | 100 | 90 | 90 | 100 | – | 100
14 | CC#Cc1cc(C)c(C2=C(OC(=O)OC)C3(CCCC(OCC(C)C)C3)NC2=O)c(Cl)c1 (stereo not shown) [Example Q6] | 100 | 90 | 100 | 100 | 100 | – | 100 | 100 | 100 | 100 | 100 | 100 | 100
